Values of other authors, collected in patent US20060024247A1, “Oral care formulations comprising highly bioavailable Coenzyme Q-10 cyclodextrin complex” (BioActives, LLC, priority 2004, published 2006).

bioavailability: very poor | solubility in water: practically insoluble in water
SMILES: COC1=C(OC)C(=O)C(C/C=C(\C)CC/C=C(\C)CC/C=C(\C)CC/C=C(\C)CC/C=C(\C)CC/C=C(\C)CC/C=C(\C)CC/C=C(\C)CC/C=C(\C)CCC=C(C)C)=C(C)C1=O [CoQ-10, Coenzyme Q-10]
